The record followed here is article PMC9698702, “Efficient Preparation of High-Purity Fucoxanthinol by SpyTag-Tailored Active Cholesterol Esterase Aggregates” (Marine Drugs, 2022).

The test system of this assay is T1, free cholesterol esterase.
T1 construct: commercial Pseudomonas cholesterol esterase (Sigma-Aldrich), free
The assay can be described thus: coupled cholesterol oxidase/peroxidase assay at […] nm, Lineweaver-Burk. Particulars: free enzyme; taurocholate, pH 7.0, 37 °C; substrate of the kinetic run not named, taken from the activity assay. Format: biochemical.

Usually Km stands for the substrate concentration at which the rate is half of its maximum. `CCCCCCCC/C=C\CCCCCCCC(=O)O[C@H]1CC[C@@]2(C)C(=CC[C@H]3[C@@H]4CC[C@H]([C@H](C)CCCC(C)C)[C@@]4(C)CC[C@@H]32)C1` [cholesteryl oleate]: the Km came out at 48.8 µM.
